Test results as given in US20250304914A1, “METHODS OF PRODUCING ENGINEERED IMMUNE CELLS” (Takeda Pharmaceutical Company Limited, priority 2022, published 2025).

Assays:
Type in all cases: cell-based
T cells [1] = test: Immune phenotype of T cells by flow cytometry (naive and stem cell memory T cells, CAR-T production)
Method: (§1) CAR-T cell culture medium: 2.6% OpTmizer Expansion Basal Supplement (Thermo Fisher Scientific), 1% L-Glutamine (Thermo Fisher Scientific), and 1% Streptomycine, 2% CTS Immune Cell SR (Thermo Fisher Scientific) were added to OpTmizer CTS T-Cell Expansion basal medium (Thermo Fisher Scientific) to prepare a basal cell culture medium. To this was added 20 IU/mL or 40 IU/mL of MACS GMP IL-2 (Miltenyi Biotec). Dimethyl Sulfoxide (DMSO) (Wako Pure Chemical Industries, Ltd) was added to the respective media to obtain the designated levels and used. After Leukopak (Hemacare) was thawed, the cells were diluted in CAR-T cell culture medium to less than or equal to 2.0×10^6 cells/mL (pre-production raw material). Cell suspension: MACS GMP T-Cell TransACT (Miltenyi Biotec)=17.5:1 were seeded in culture bags and cultured in about 48 hours (cell activation step). The activated cells were diluted in culture medium using a LOVO Cell processing system (Fresenius Kabi) or a centrifuge, seeded under 6.07×10^5 cells/cm^2 in culture bags that had been previously coated with Retronectin® (Takara Bio Co., Ltd.) and a retrovirus into which a CAR gene or a CAR gene, a IL-7 gene, and a CCL19 gene had been introduced, and cultured until the next day (gene transfer process). Culture bottles (G-REX, Wilson Wolf) were seeded under 2.2×10^6 cells/cm^2 and cultured for 3-7 days to produce CAR-T cells (final products). The CAR gene used has the base sequence encoding the amino acid sequence shown in SEQ ID NO: 1, IL-7 gene used has the base sequence encoding the amino acid sequence shown in SEQ ID NO: 2, and CCL19 gene used has the base sequence encoding the amino acid sequence shown in SEQ ID NO: 3 (the same applies to the following SK-HEP-1 cells). See Table 1 for the afore mentieond sequences. CAR introduction rates into T cells were determined using CAR-targeting antigens on a BD FACSCanto II flow cytometer (BD Biosciences). The immunophenotype of T cells was measured using an anti-CD4 antibody (clone SK3, cat #344604, BioLegend), an anti-CD8 antibody (clone SK1, cat #344710, BioLegend), an anti-CCR7 antibody (clone G043H7, cat #353204, BioLegend), an anti-CD45RA antibody (clone L48, cat #337167, BD Biosciences), an anti-CD27 antibody (clone 0323, cat #302836, BioLegend), and an anti-CD95 antibody (clone DX2, cat #305612, BioLegend), and CCR7/CD45RA/CD27/CD95 positive cells in a CD4 positive or CD8 positive T cell population were used as stem cell memory T cells, and CCR7/CD45RA positive cells other than these were used as naive T cells.

NK92 cells = test: Introduction of mCherry gene into NK92 cells, flow cytometry
Method: NK92 cell culture medium: RPMI, L-Gln (+) (Thermo Fisher Scientific) was prepared by adding 20% FBS (Biosera Co., Ltd.). Dimethyl Sulfoxide (DMSO) (Wako Pure Chemical Industries, Ltd) was added to the respective media to obtain the designated levels and used. NK92 cells (ATCC) were diluted with NK92 cell culture medium so that they were 2.0×10^6 cells/mL or less, seeded under 6.07×10^5 cells/cm^2 on culture plates with or without DMSO for 2 days. After that, NK92 cells were cultured on retronectin (Takara Bio Co., Ltd.) and a retrovirus into which a mCherry gene had been introduced, and cultured for 2 days to introduce the mCherry gene into NK92 cells. mCherry positive NK92 cells were produced as described above. DMSO from 0.01% to 0.1% was added in the pre-cultre step before transduction during its production. After production, the rate of introduction of the mCherry-gene was measured by flow cytometry.

T cells [2] = test: Rate of introduction of the CAR gene into T cells by flow cytometry (CAR-T production); conditions: for CAR-positive rate: 0.0037%, 0.011%
Method: as §1

SK-HEP-1 cells = test: Introduction of CAR gene into SK-HEP-1 cells, flow cytometry; conditions: Example 8, 0.1% DMSO in transduction step, FIG. 8A
Method: SK-HEP-1 cell culture medium: MEM, L-Gln (+) (Thermo Fisher Scientific) was prepared by adding 10% FBS (Biosera Co., Ltd.), 1% Non-essential amino acids (Fujifilm Wako Pure Chemical Industries, Ltd.), 1% Penicillin-Streptomycin solution (Fujifilm Wako Pure Chemical Industries, Ltd.), and 1 mM Sodium pyruvate (Fujifilm Wako Pure Chemical Industries, Ltd.). Dimethyl Sulfoxide (DMSO) (Wako Pure Chemical Industries, Ltd) was added to the respective media to obtain the designated levels and used. SK-HEP-1 cells (ATCC) were diluted with SK-HEP-1 cell culture medium so that they were 2.0×10^6 cells/mL or less, seeded under 6.07×10^5 cells/cm^2 on culture plates that had been coated with retronectin (Takara Bio Co., Ltd.) and a retrovirus into which a CAR gene had been introduced, and cultured for 4 days to introduce the CAR gene into SK-HEP-1 cells. CAR-T cells were produced as described above. SK-Hep-1 cell expressing CAR were produced as discussed above. 0.1% DMSO was added in the transduction_step during its production. After production, the rate of introduction of the CAR-gene was measured by flow cytometry.

[3] = Example 1, armored, activation step, 0.0037%, 0.011%, 0.033%, 0.1% DMSO vs no DMSO
[4] = Example 1, armored, activation step, 0.011%, 0.033%, 0.1% DMSO vs no DMSO
[5] = Example 3, armored, transduction step, 0.011%, 0.033%, 0.1%, 0.3% DMSO vs no DMSO
[6] = Example 6, unarmored, ex vivo expansion step, 0.3% DMSO vs no DMSO
[7] = Example 7, unarmored, ex vivo expansion step, 0.6-2.7% DMSO vs no DMSO

Compound: C[S+](C)[O-] [DMSO, dimethyl sulfoxide]
- CD8 positive naive T cells (T cells [1]; [3]): significantly increased
- CD8 positive stem cell memory T cells (T cells [1]; [3]): significantly increased
- CD4 positive naive T cells (T cells [1]; [4]): significantly increased
- CD4 positive stem cell memory T cells (T cells [1]; [4]): significantly increased
- CD4 positive stem cell memory T cells (T cells [1]; Example 2, unarmored, activation step, 0.0037%, 0.011%, 0.033%, 0.1%, 0.3% DMSO vs no DMSO): significantly increased
- CD8 positive stem cell memory T cells (T cells [1]; Example 2, unarmored, activation step, 0.1% and 0.3% DMSO vs no DMSO): significantly increased
- CD8 positive stem cell memory T cells (T cells [1]; Example 3, armored, transduction step, 0.0037%, 0.011%, 0.033%, 0.1% DMSO vs no DMSO): increased
- CD8 positive naive T cells (T cells [1]; Example 3, armored, transduction step, 0.011% and 0.033% DMSO vs no DMSO): increased
- CD4 positive naive T cells (T cells [1]; [5]): significantly increased
- CD4 positive stem cell memory T cells (T cells [1]; [5]): significantly increased
- CD8 positive stem cell memory T cells (T cells [1]; Example 4, unarmored, transduction step, 0.0037%, 0.011%, 0.033%, 0.01% and 0.3% DMSO vs no DMSO): increased
- CD4 positive naive T cells (T cells [1]; Example 4, unarmored, transduction step, 0.011% and 0.033% DMSO vs no DMSO): increased
- CD8 positive stem cell memory T cells (T cells [1]; Example 5, armored, ex vivo expansion step, 0.3% DMSO vs no DMSO): significantly increased
- CD4 positive naive T cells (T cells [1]; [6]): increased
- CD4 positive stem cell memory T cells (T cells [1]; [6]): increased
- CD4 positive naive T cells (T cells [1]; [7]): increased
- CD4 positive stem cell memory T cells (T cells [1]; [7]): increased
- CD8 positive naive T cells (T cells [1]; [7]): increased
- CD8 positive stem cell memory T cells (T cells [1]; [7]): increased
- mCherry transduction efficiency (NK92 cells; Example 9, NK92 cells, 0.03% and 0.1% DMSO in pre-culture step 2 days before transduction, FIG. 9B): significantly improves
- transduction efficiency in NK92 cells (mCherry positive cells) (NK92 cells; FIG. 9B legend, 0.01%-0.1% DMSO added in preculture step before transduction): improved
- CAR-positive rate (T cells [2]; Example 1, CAR-T expressing IL-7 and CCL19 (armored), 0.033%, 0.1% DMSO in activation step (heading, FIG. 1; text says transduction step), vs no DMSO group): significantly increased
- CAR-positive rate (T cells [2]; Example 2, CAR-T (unarmored), 0.033%, 0.1%, 0.3% DMSO in activation step (heading, FIG. 2; text says transduction step), vs no DMSO group): significantly increased
- CAR-positive rate (T cells [2]; Example 3, armored (IL-7, CCL19), gene transduction step, 0.033%, 0.1% DMSO vs no DMSO group): significantly increased
- CAR-positive rate (T cells [2]; Example 4, unarmored, gene transduction step, 0.033% DMSO vs no DMSO group): increased
- CAR transduction efficiency (CAR-T) (T cells [2]; Example 8, 0.1% DMSO in transduction step, FIG. 8B): significantly improves
- CAR gene transduction in SK-Hep-1 (SK-HEP-1 cells): suppresses
